Consider 3 compounds from US20120101284A1, “METHOD FOR SCREENING INHIBITOR FOR INHIBITING INTERACTION BETWEEN BETA-AMYLOID PEPTIDE AND VEGF AND INHIBITOR SEARCHED BY THE SAME” (INNOPHARMASCREEN INC., priority 2009, published 2012).

Data set [1] concerns SH-SY5Y cell. Kind of data set: Inhibition of cytotoxicity of beta-amyloid by screened material (MTT assay). Type of data set: cell-based. The following applies: standard of 10 μM beta-amyloid, at more than 5 μM, 24 hours. As to the method: The SH-SY5Y cells were added to 96-well tissue culture plate to be the cell concentration of 1×10^4 per well.
(In general: Formazan colour is commonly taken as a measure of viable cells.)

Data set [2] concerns SH-SY5Y cell.
Description: PC12 Cell (Korean Cell Line Bank, Seoul, Korea) was maintained in the mixed solution of RPMI1640 (Welgene, Daegu, Korea) containing 1× Antibiotic-Antimycotic (GIBCO, N.Y., USA) and 10% FBS (Fetal Bovine Serum) (Welgene, Daegu, Korea). SH-SY5Y cell (Korean Cell Line Bank, Seoul, Korea) was maintained in the mixed solution of DMED/F12 (Welgene, Daegu, Korea) containing 1× Antibiotic-Antimycotic (GIBCO, N.Y., USA) and 10% FBS (Fetal Bovine Serum) (Welgene, Daegu, Korea). The PC12 and SH-SY5Y culture cells were maintained under the conditions of 100% humidity and 37° C. in the environment for supplying gas components with further 5% carbon dioxide.
It was performed according to a MTT [(3-(4,5-dimethylthiazol-2yl-2,5-diphenyl-2H-tetrazoilum bromide] experiment protocol. MTT was dissolved in PBS to be 5 mg/ml and then stored at 4° C. to use. After completing the reaction, 10 μl of 5 mg/ml MTT solution was added to 100 culture mixed solution of each well and then reacted for 3 hours. The supernatant of each well was discarded, and then a chromophoric reactant (Formazancrystal) was dissolved in 100 μl of DMSO; and then an absorbance was measured using ELISA reader (595 nm).
The PC12 cells were added to each of wells of Poly-D-lysine-coated 96-well tissue culture plate (Corning, Mass., USA) to be the cell concentration of 2×10^4 per well. […]
The target in data set [3] is T1, binding between the beta-amyloid 1-42 peptide and VEGF165 (Homo sapiens, UniProt P15692).
T1 construct: purchased R&D System, Inc. (VEGF165); Bachem AG (beta-amyloid)
T1 sequence (P15692 27-191 isoform P15692-4): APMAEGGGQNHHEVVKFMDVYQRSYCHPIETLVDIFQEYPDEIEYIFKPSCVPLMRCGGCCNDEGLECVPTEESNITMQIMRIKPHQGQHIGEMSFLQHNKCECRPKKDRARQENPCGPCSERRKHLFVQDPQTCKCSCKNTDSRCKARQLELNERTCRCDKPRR
Kind of data set: Protein chip screening of inhibitors of the binding between beta-amyloid and VEGF165. The note with it: first screening, VEGF165 50 μg/ml, single concentration. As to the method:
ProteoChip™ (Proteogen Inc., Seoul, Korea) was used as a substrate to fix a protein. A sheet paper was adhered on the substrate to prepare Well-Chip. A beta-amyloid (Bachem AG, Bubendorf, Switzerland) was diluted with a phosphate-buffered saline (PBS) containing 30% glycerol solution to be 50 μg/ml; then added to each well; reacted at 30° C. in a humidity incubator, overnight; the beta-amyloid remained after combining was washed with a phosphate-buffered saline containing 0.05% tween-20 (0.05% PBST); dried with a nitrogen gas; and then a high-speed-high throughput screening was performed.
A mixed solution was prepared by mixing VEGF165 (50 μg/ml) and 130 compounds (50 μM) derived from a natural material obtained in Example 1 in order to experiment the inhibition of the binding between the beta-amyloid and VEGF165. […]
The beta-amyloid-tagged protein chip prepared in Example 2 was blocked with 3% BSA for 2 hours; then washed with 0.05% PBST twice; and then dried with a nitrogen gas. […] It was washed with the washing solution; then dried using a nitrogen gas; a primary antibody was added to each of wells; then reacted at 30° C. in a humidity incubator for 30 minutes; washed with the washing solution; and then dried with the nitrogen gas to measure an inhibition ability of library by analyzing the binding degree with the relative fluorescence intensity using a fluorescence laser scanner. […]

For the compound `NCCCS(=O)(=O)O` [Alzhemed™], the “survival rate of cell increased” value with SH-SY5Y cell [1] is “about 30%”.

For the compound “beta-amyloid 1-42: forward-synthesized beta-amyloid 1-42 peptide”, the “survival rate of cell” value with SH-SY5Y cell [2] is recorded as “decreased in proportion as the concentration increase”.

As to heparin, the “inhibition of the interaction between beta-amyloid 1-42 peptide and VEGF165 (relative fluorescence intensity)” value in data set [3] was “inhibited”.
